Source: US6444617B1, “Fused-heterocycle dicarboxylic acid diamide derivatives or salts thereof, herbicide and usage thereof” (Nihon Nohyaku Co., Ltd., priority 1998, dated 2002)

Tests used:
Type in all cases: in vivo
[1] = system: velvetleaf (Abutilon theophtasti L.), At; assay: Test Example 3: herbicidal effect on upland weeds before emergence; conditions: dosage 5 kg/ha
Procedure, shortened: (§1)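 Herbicidal activity was rated from kill rate determined 14 days post-spray, the compound having been applied pre-emergence as a liquid agent.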

[2] = system: cocklebur (Xanthium strumarium L.), Xs; assay: as above; conditions: dosage 5 kg/ha
Procedure, shortened: as §1

[3] = system: cleavers (Galium aparine L.), Ga; assay: as above; conditions: dosage 5 kg/ha
Procedure, shortened: as §1

[4] = system: forxtail grass (Alopecurus aequalis var. amurensis Ohwi), Am; assay: as above; conditions: foxtail grass, dosage 5 kg/ha
Procedure, shortened: as §1

[5] = system: bird's eye speedwell (Veronica persica Poir.), Vp; assay: as above; conditions: dosage 5 kg/ha
Procedure, shortened: as §1

[6] = system: barnyard grass (Echinochloa crus-galli Beauv.), Ec; assay: as above; conditions: dosage 5 kg/ha
Procedure, shortened: as §1

[7] = system: barnyard grass (Echinochloa crus-galli Beauv.); assay: Test Example 2: herbicidal effect on paddy field weeds after emergence; conditions: Dosage 5 kg/ha; one-leaved stage; 21 days after treatment
Procedure, shortened: (§2)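 Weeds in flooded paddy-soil pots were grown to the one-leaved stage, then the soil was treated with the compound solution at a set dosage.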

[8] = system: monochoria (Monochoria vaginalis Presl); assay: as above; conditions: Dosage 5 kg/ha; one-leaved stage; 21 days after treatment
Procedure, shortened: as §2

[9] = system: bulrush (Scirpus juncoides Roxb.); assay: as above; conditions: Dosage 5 kg/ha; one-leaved stage; 21 days after treatment
Procedure, shortened: as §2

wheat = assay: Test Example 4: phytotoxicity to upland crop plants, treatment after emergence; conditions: dosage 5 kg/ha, sprayed after emergence, judged 14 days after treatment
Procedure, shortened: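 Upland weeds and crop plants (soybean, wheat) are grown from seed in soil until they reach given leaf stages, then treated by spraying with the compound-containing agent; effects are judged two weeks later.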

soybean plant = assay: as above; conditions: dosage 5 kg/ha, sprayed after emergence, judged 14 days after treatment
Procedure, shortened: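 Post-emergence foliar spray, compound at prescribed concentration, applied at defined leaf stages; weeds plus soybean/wheat grown in soil vats. Read-out: weed-killing rate and crop injury, 14 d post-treatment.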

[10] = system: barnyard grass (Echinochloa crus-galli Beauv.); assay: Test Example 1: herbicidal effect on paddy field weeds before emergence; conditions: Dosage 5 kg/ha
Procedure, shortened: (§3)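 Seeds of both weeds, still ungerminated, in soil pots held under paddy conditions received a set dose of test solution as soil treatment. After twenty-one days, control relative to untreated pots was calculated and rated on a scoring scale.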

[11] = system: bulrush (Scirpus juncoides Roxb.); assay: as above; conditions: Dosage 5 kg/ha
Procedure, shortened: as §3

wheat (Wh) = assay: Test Example 3: phytotoxicity to upland crop plants, treatment before emergence; conditions: dosage 5 kg/ha
Procedure, shortened: (§4)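 Pre-emergence spray of a liquid preparation at a prescribed compound concentration. Soybean and wheat injury was scored against a phytotoxicity criterion 14 days after treatment, alongside weed control.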

soybean plant (So) = assay: as above; conditions: dosage 5 kg/ha
Procedure, shortened: as §4

[12] = system: velvetleaf (Abutilon theophtasti L.), At; assay: Test Example 4: herbicidal effect on upland weeds after emergence; conditions: dosage 5 kg/ha; sprayed after emergence; judged 14 days after treatment
Procedure, shortened: (§5)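 Weeds and soybean grown in soil-filled vats to set leaf stages, then sprayed post-emergence with the compound at a prescribed concentration. Weed-killing rate and crop phytotoxicity judged 14 days after treatment.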

[13] = system: cocklebur (Xanthium strumarium L.), Xs; assay: as above; conditions: dosage 5 kg/ha; sprayed after emergence; judged 14 days after treatment
Procedure, shortened: as §5

[14] = system: cleavers (Galium aparine L.), Ga; assay: as above; conditions: dosage 5 kg/ha; sprayed after emergence; judged 14 days after treatment
Procedure, shortened: as §5

[15] = system: forxtail grass (Alopecurus aequalis var. amurensis Ohwi), Am; assay: as above; conditions: dosage 5 kg/ha; sprayed after emergence; judged 14 days after treatment
Procedure, shortened: as §5

[16] = system: bird's eye speedwell (Veronica persica Poir.), Vp; assay: as above; conditions: dosage 5 kg/ha; sprayed after emergence; judged 14 days after treatment
Procedure, shortened: as §5

[17] = system: barnyard grass (Echinochloa crus-galli Beauv.), Ec; assay: as above; conditions: dosage 5 kg/ha; sprayed after emergence; judged 14 days after treatment
Procedure, shortened: as §5

| Compound | Herbicidal effect At [1] | Herbicidal effect Xs [2] | Herbicidal effect Ga [3] | Herbicidal effect Am [4] | Herbicidal effect Vp [5] | Herbicidal effect Ec [6] | Post-emergence treatment Barnyard grass (herbicidal effect) [7] | Post-emergence treatment Monochoria (herbicidal effect) [8] | Post-emergence treatment Bulrush (herbicidal effect) [9] | Phytotoxicity Wh (wheat) | Phytotoxicity So (soybean plant) | Pre-emergence treatment Barnyard grass (herbicidal effect) [10] | Pre-emergence treatment Bulrush (herbicidal effect) [11] | Phytotoxicity Wh (wheat (Wh)) | Phytotoxicity So (soybean plant (So)) | Herbicidal effect At [12] | Herbicidal effect Xs [13] | Herbicidal effect Ga [14] | Herbicidal effect Am [15] | Herbicidal effect Vp [16] | other results |
| --- | --- | --- | --- | --- | --- | --- | --- | --- | --- | --- | --- | --- | --- | --- | --- | --- | --- | --- | --- | --- | --- |
| CCCNC(=O)c1nc2cc3c(cc2cc1C(=O)Nc1c(CC)ccc(Cl)c1CC)OCO3 [compound 334] | 5 (Weed-killing rate is 100%.) | 3 (Weed-killing rate is 70-89%.) | 3 (Weed-killing rate is 70-89%.) | 4 (Weed-killing rate is 90-99%.) | 4 (Weed-killing rate is 90-99%.) | 4 (Weed-killing rate is 90-99%.) | 4 (Weed-killing rate is 90-99%.) | 5 (Weed-killing rate is 100%.) | 4 (Weed-killing rate is 90-99%.) | 2 (Crop-killing rate is 40-69%.) | 1 (Crop-killing rate is 1-39%.) | 5 (Weed-killing rate is 100%.) | 4 (Weed-killing rate is 90-99%.) | 2 (Crop-killing rate is 40-69%.) | 0 (Crop-killing rate is 0-20% (No Phytotoxicity).) | 4 (Weed-killing rate is 90-99%.) | 3 (Weed-killing rate is 70-89%.) | 3 (Weed-killing rate is 70-89%.) | 3 (Weed-killing rate is 70-89%.) | 4 (Weed-killing rate is 90-99%.) | Herbicidal effect Ec [17]: 4 (Weed-killing rate is 90-99%.) |
| CCc1ccc(Cl)c(CC)c1NC(=O)c1cc2cc3c(cc2nc1C(=O)NCC(C)C)OCO3 [compound 339] | 4 (Weed-killing rate is 90-99%.) | 2 (Weed-killing rate is 40-69%.) | 3 (Weed-killing rate is 70-89%.) | 4 (Weed-killing rate is 90-99%.) | 4 (Weed-killing rate is 90-99%.) | 4 (Weed-killing rate is 90-99%.) | 3 (Weed-killing rate is 70-89%.) | 4 (Weed-killing rate is 90-99%.) | 2 (Weed-killing rate is 40-69%.) | 2 (Crop-killing rate is 40-69%.) | 1 (Crop-killing rate is 1-39%.) | 4 (Weed-killing rate is 90-99%.) | 3 (Weed-killing rate is 70-89%.) | 1 (Crop-killing rate is 1-39%.) | 0 (Crop-killing rate is 0-20% (No Phytotoxicity).) | 4 (Weed-killing rate is 90-99%.) | 2 (Weed-killing rate is 40-69%.) | 2 (Weed-killing rate is 40-69%.) | 3 (Weed-killing rate is 70-89%.) | 4 (Weed-killing rate is 90-99%.) | Herbicidal effect Ec [17]: 4 (Weed-killing rate is 90-99%.) |
| CCc1ccc(Cl)c(CC)c1NC(=O)c1cc2cc3c(cc2nc1C(=O)NC1CCCC1)OCO3 [compound 343] | 3 (Weed-killing rate is 70-89%.) | 2 (Weed-killing rate is 40-69%.) | 3 (Weed-killing rate is 70-89%.) | 3 (Weed-killing rate is 70-89%.) | 4 (Weed-killing rate is 90-99%.) | 4 (Weed-killing rate is 90-99%.) | 3 (Weed-killing rate is 70-89%.) | 5 (Weed-killing rate is 100%.) | 3 (Weed-killing rate is 70-89%.) | 0 (Crop-killing rate is 0-20% (No Phytotoxicity).) | 0 (Crop-killing rate is 0-20% (No Phytotoxicity).) | 5 (Weed-killing rate is 100%.) | 3 (Weed-killing rate is 70-89%.) | 0 (Crop-killing rate is 0-20% (No Phytotoxicity).) | 0 (Crop-killing rate is 0-20% (No Phytotoxicity).) | 3 (Weed-killing rate is 70-89%.) | 2 (Weed-killing rate is 40-69%.) | 2 (Weed-killing rate is 40-69%.) | 2 (Weed-killing rate is 40-69%.) | 3 (Weed-killing rate is 70-89%.) | Herbicidal effect Ec [17]: 4 (Weed-killing rate is 90-99%.) |
| CCCNC(=O)c1nc2ncccc2cc1C(=O)Nc1c(CC)ccc(Cl)c1CC [compound 361] | 5 (Weed-killing rate is 100%.) | 5 (Weed-killing rate is 100%.) | 5 (Weed-killing rate is 100%.) | 5 (Weed-killing rate is 100%.) | 5 (Weed-killing rate is 100%.) | 5 (Weed-killing rate is 100%.) | 5 (Weed-killing rate is 100%.) | 5 (Weed-killing rate is 100%.) | 5 (Weed-killing rate is 100%.) | 5 (Crop-killing rate is 100%.) | 4 (Crop-killing rate is 90-99%.) | 5 (Weed-killing rate is 100%.) | 5 (Weed-killing rate is 100%.) | 4 (Crop-killing rate is 90-99%.) | 4 (Crop-killing rate is 90-99%.) | 5 (Weed-killing rate is 100%.) | 5 (Weed-killing rate is 100%.) | 5 (Weed-killing rate is 100%.) | 5 (Weed-killing rate is 100%.) | 5 (Weed-killing rate is 100%.) | Herbicidal effect Ec [17]: 5 (Weed-killing rate is 100%.) |
| CCCNC(=O)c1nc2ncccc2cc1C(=O)Nc1cccc(Cl)c1C [compound 375] | 5 (Weed-killing rate is 100%.) | 5 (Weed-killing rate is 100%.) | 5 (Weed-killing rate is 100%.) | 5 (Weed-killing rate is 100%.) | 5 (Weed-killing rate is 100%.) | 5 (Weed-killing rate is 100%.) | 5 (Weed-killing rate is 100%.) | 5 (Weed-killing rate is 100%.) | 5 (Weed-killing rate is 100%.) | 4 (Crop-killing rate is 90-99%.) | 4 (Crop-killing rate is 90-99%.) | 5 (Weed-killing rate is 100%.) | 5 (Weed-killing rate is 100%.) | 3 (Crop-killing rate is 70-89%.) | 3 (Crop-killing rate is 70-89%.) | 5 (Weed-killing rate is 100%.) | 5 (Weed-killing rate is 100%.) | 5 (Weed-killing rate is 100%.) | 5 (Weed-killing rate is 100%.) | 5 (Weed-killing rate is 100%.) | Herbicidal effect Ec [17]: 5 (Weed-killing rate is 100%.) |
